Test results as given in patent EP0562731A1, “Substituted pyridinesulfonamide compounds or their salts, process for preparing the same, and herbicides containing the same” (ISHIHARA SANGYO KAISHA, Ltd., priority 1992, dated 1993).

Columns and labels:
Format in all cases: in vivo
[1] = tested on: large crabgrass (Digitaria adscendens); assay: Test Example 1: foliar application pot test, visual growth control rating; design: key: 1: the same as in an untreated plot; 10: perfect growth control; conditions: 1.25 g/a active ingredient, wettable powder, observed 20 to 31 days after application
Source text: (§1) 1/1,500 are [are (a) = 100 m²] pots were filled with upland farming soil, which in the pots was then sown with a variety of plants. The plants grown will be enumerated below.
(§2) When each plant reached a given growth stage (a 1.2- to 3.0-leaf stage for rice, primary leaf to a 0.7-leaf stage for soybean, 2.1- to 3.6-leaf stage for corn, cotyledon to 0.7-leaf stage for cotton, 2.0- to 3.0-leaf stage for wheat, 0.3- to 3.4-leaf stage for cocklebur, 0.3- to 1.6-leaf stage for morning glory, 0.1- to 1.3-leaf stage for prickly sida, 0.1- to 1.3-leaf stage for slender amaranth, 1.5- to 3.2-leaf stage for barnyard glass, and 1.2- to 3.0-leaf stage for large crabgrass), a predetermined amount of the herbicide of the present invention in the form of a wettable powder, weighed out, diluted with 5 ℓ/a of water and admixed with 0.2 or 0.1 vol%, based on the resulting composition, of an agricultural spreader, was foliarly applied to the plant with a small spray gun. The progress of growth of the plant was visually observed 20 to 31 days after the foliar application to evaluate the degree of growth control according to 10 ratings (1: the same as in an untreated plot - 10: perfect growth control).

soybean (Glycine max) = assay: as above; design: key: 1: the same as in an untreated plot; 10: perfect growth control; conditions: 1.25 g/a active ingredient, wettable powder, observed 20 to 31 days after application
Source text: as §1, §2

[2] = tested on: prickly sida (Sida spinosa); assay: as above; design: key: 1: the same as in an untreated plot; 10: perfect growth control; conditions: 1.25 g/a active ingredient, wettable powder, observed 20 to 31 days after application
Source text: as §1, §2

[3] = tested on: cocklebur (Xanthium strumarium); assay: as above; design: key: 1: the same as in an untreated plot; 10: perfect growth control; conditions: 1.25 g/a active ingredient, wettable powder, observed 20 to 31 days after application
Source text: as §1, §2

[4] = tested on: barnyard grass (Echinochloa crus-galli); assay: as above; design: key: 1: the same as in an untreated plot; 10: perfect growth control; conditions: 1.25 g/a active ingredient, wettable powder, observed 20 to 31 days after application
Source text: as §1, §2

rice (Oryza sativa) = assay: as above; design: key: 1: the same as in an untreated plot; 10: perfect growth control; conditions: 1.25 g/a active ingredient, wettable powder, observed 20 to 31 days after application
Source text: as §1, §2

wheat (Triticum) = assay: as above; design: key: 1: the same as in an untreated plot; 10: perfect growth control; conditions: 1.25 g/a active ingredient, wettable powder, observed 20 to 31 days after application
Source text: as §1, §2

[5] = tested on: slender amaranth (Amaranthus viridis); assay: as above; design: key: 1: the same as in an untreated plot; 10: perfect growth control; conditions: 1.25 g/a active ingredient, wettable powder, observed 20 to 31 days after application
Source text: as §1, §2

[6] = tested on: morning glory (Ipomoea purpurea); assay: as above; design: key: 1: the same as in an untreated plot; 10: perfect growth control; conditions: 1.25 g/a active ingredient, wettable powder, observed 20 to 31 days after application
Source text: as §1, §2

corn (Zea mays) = assay: as above; design: key: 1: the same as in an untreated plot; 10: perfect growth control; conditions: 1.25 g/a active ingredient, wettable powder, observed 20 to 31 days after application
Source text: as §1, §2

[7] = tested on: velvet leaf (Abutilon theophrasti); assay: Test Example 2: foliar application pot test, visual herbicidal effect rating, single and combined herbicides; conditions: velvet leaf 1.2-leaf stage, 25 days after foliar application; note: ranges in brackets are in %
Source text: 1/10000-are pot was filled with upland farming soil and sown with velvet leaf (Abutilon theophrasti). When the plant reached the 1.2-leaf stage, a predetermined amount of the herbicide of the present invention diluted with 5 ℓ of water per are and admixed with 0.1 vol%, based on the aqueous solution, of an agricultural spreader ("Kusa Rino", produced by Nihon Nohyaku Co., Ltd.) was foliarly applied to the plant with a small spray gun. The herbicidal effect was visually observed 25 days after the foliar application and evaluated according to the rating system shown below.

Row | SMILES | degree of growth control, DI [1] | degree of growth control, GL (soybean (Glycine max)) | degree of growth control, SI [2] | degree of growth control, XA [3] | degree of growth control, EC [4] | degree of growth control, OR (rice (Oryza sativa)) | degree of growth control, TR (wheat (Triticum)) | degree of growth control, AM [5] | degree of growth control, IP [6] | degree of growth control, ZE (corn (Zea mays)) | Rating ([7]; 0.02 g/a) | Rating ([7]; 0.04 g/a) | Rating ([7]; 0.08 g/a) | Rating ([7]; 0.25 g/a) | Rating ([7]; 0.5 g/a) | Rating ([7]; 1.00 g/a)
1 | CCC(C)N(c1cccc(S(=O)(=O)NC(=O)Nc2nc(C)nc(OC)n2)n1)S(=O)(=O)C(C)CC (racemic) [compound 81] | 3 | 6 | 2 | 9 | 6 | 5 | 2 | 3 | 6 | 2 |  |  |  |  |  | 
2 | CCOC(=O)c1ccccc1S(=O)(=O)NC(=O)Nc1nc(Cl)cc(OC)n1 [Chlorimuron-ethyl, ethyl 2-[[[[(4-chloro-6-methoxy-2-pyrimidinyl)amino]carbonyl]amino]sulfonyl]benzoate] |  |  |  |  |  |  |  |  |  |  | 6 (60-69) | 8 (80-89) | 9 (90-99) |  |  | 
3 | CCCN(c1cccc(S(=O)(=O)NC(=O)Nc2nc(C)nc(OC)n2)n1)S(=O)(=O)CC [Compound No. 3] | 6 | 3 | 6 | 8 | 9 | 6 | 4 | 10 | 5 | 8 |  |  |  |  |  | 
4 | CCCCN(c1cccc(S(=O)(=O)NC(=O)Nc2nc(C)nc(OC)n2)n1)S(=O)(=O)C(C)C [Compound No. 4] | 3 | 4 | 6 | 9 | 7 | 8 | 2 | 9 | 6 | 10 |  |  |  |  |  | 
5 | CS(=O)(=O)NC(=O)c1cc(Oc2ccc(C(F)(F)F)cc2Cl)ccc1[N+](=O)[O-] [Fomesafen, 5-[2-chloro-4-(trifluoromethyl)phenoxy]-N-(methylsulfonyl)-2-nitrobenzamide] |  |  |  |  |  |  |  |  |  |  |  |  |  | 3 (30-39) | 7 (70-79) | 7 (70-79)
6 | CCS(=O)(=O)N(c1cccc(S(=O)(=O)NC(=O)Nc2nc(C)nc(OC)n2)n1)C(C)C [compound 6] | 4 | 3 | 6 | 7 | 6 | 6 | 3 | 9 | 8 | 10 |  |  |  |  |  | 
7 | CCS(=O)(=O)N(c1cccc(S(=O)(=O)NC(=O)Nc2nc(OC)nc(OC)n2)n1)C(C)C [compound 7] | 2 | 3 | 3 | 7 | 2 | 3 | 2 | 9 | 6 | 10 |  |  |  |  |  | 
8 | CCCN(c1cccc(S(=O)(=O)NC(=O)Nc2nc(OC)nc(OC)n2)n1)S(=O)(=O)CC [compound 8] | 5 | 4 | 3 | 6 | 5 | 3 | 3 | 7 | 4 | 5 |  |  |  |  |  | 
9 | CCCCN(c1cccc(S(=O)(=O)NC(=O)Nc2nc(C)nc(OC)n2)n1)S(C)(=O)=O [compound 32] | 6 | 3 | 4 | 6 | 3 | 3 | 2 | 6 | 5 | 3 |  |  |  |  |  | 
10 | COc1nc(C)nc(NC(=O)NS(=O)(=O)c2cccc(N(CC(C)C)S(C)(=O)=O)n2)n1 [compound 33] | 6 | 3 | 3 | 3 | 3 | 6 | 3 | 6 | 4 | 2 |  |  |  |  |  | 
11 | CCN(c1cccc(S(=O)(=O)NC(=O)Nc2nc(C)nc(OC)n2)n1)S(=O)(=O)CC [compound 37] | 2 | 2 | 3 | 4 | 4 | 2 | 1 | 9 | 3 | 3 |  |  |  |  |  | 
12 | CCCS(=O)(=O)N(C)c1cccc(S(=O)(=O)NC(=O)Nc2nc(C)nc(OC)n2)n1 [compound 39] | 4 | 4 | 3 | 5 | 3 | 3 | 3 | 9 | 5 | 3 |  |  |  |  |  | 
13 | CCCCS(=O)(=O)N(CCC)c1cccc(S(=O)(=O)NC(=O)Nc2nc(C)nc(OC)n2)n1 [compound 42] | 5 | 4 | 3 | 6 | 3 | 6 | 4 | 10 | 4 | 3 |  |  |  |  |  | 
14 | CCCCN(c1cccc(S(=O)(=O)NC(=O)Nc2nc(C)nc(OC)n2)n1)S(=O)(=O)CCCC [compound 43] | 6 | 4 | 3 | 6 | 3 | 2 | 3 | 5 | 3 | 3 |  |  |  |  |  | 
15 | CCN(c1cccc(S(=O)(=O)NC(=O)Nc2nc(C)nc(OC)n2)n1)S(=O)(=O)CCl [compound 60] | 4 | 4 | 5 | 9 | 6 | 6 | 2 | 9 | 7 | 5 |  |  |  |  |  | 
16 | CCCCS(=O)(=O)N(CC(C)C)c1cccc(S(=O)(=O)NC(=O)Nc2nc(C)nc(OC)n2)n1 [compound 82] | 3 | 3 | 1 | 9 | 4 | 4 | 4 | 7 | 6 | 8 |  |  |  |  |  | 
17 | CCN(c1cccc(S(=O)(=O)NC(=O)Nc2nc(OC)nc(OC)n2)n1)S(=O)(=O)CC(F)(F)F [compound 92] | 3 | 7 | 6 | 10 | 6 | 5 | 9 | 5 | 10 | 7 |  |  |  |  |  | 
